The values that follow come from patent US20090118310A1, “Activated Cdc42-associated kinase (ACK) as a therapeutic target for Ras-induced cancer” (UNIVERSITY OF MEDICINE AND DENTISTRY OF NEW JERSEY, priority 2005, published 2009).

For test [1], the target named is T1, ACK-1 kinase (GST-ACKD, amino acids 101-441) (Homo sapiens, UniProt Q07912).
T1 construct: made in house; host or cells: Escherichia coli BL21 (pGEX-2TH vector)
The test is described as follows: In vitro kinase assay of GST-ACKD with MBP as substrate. It is filed as biochemical. Conditions: FIG. 4C dose response, FIG. 4D inhibitors at 200 nmol/L. The protocol: Escherichia coli BL21 cells transformed with pGEX-ACKD were grown at 30° C. to early logarithmic phase and protein expression was induced by adding 0.1 mmol/L isopropyl-L-thio-β-D-galactopyranoside. After 3 hours of incubation, cells were harvested, resuspended in lysis buffer [50 mmol/L Tris (pH 7.5), 0.73 mol/L sucrose, 5 mmol/L MgCl2, 0.5% (v/v) NP40], and disrupted by sonication. Cells were centrifuged at 10,000×g for 30 minutes at 4° C. The supernatant was applied to the glutathione-Sepharose column equilibrated with WED buffer [20 mmol/L Tris (pH 7.5), 2 mmol/L MgCl2, 1 mmol/L DTT] followed by washing with WED buffer. GST-ACKD was eluted with 5 mmol/L glutathione solution in 50 mmol/L Tris (pH 9.6). The eluate was dialyzed in WED buffer overnight and concentrated on a sucrose gradient. The expected size of the fusion protein (GST-ACKD) was confirmed by SDS-PAGE (data not shown), and the protein was used for kinase assays as described below.
The purified GST-ACKD (˜5 μg per reaction) was incubated in kinase reaction buffer [50 mmol/L HEPES-KOH (pH 7.2), 10 mmol/L magnesium acetate, 5 mmol/L DTT] containing 7.5 μg MBP, 100 μmol/L ATP, and 4 μCi [γ-^33P]ATP for 10 minutes at 30° C. Reactions were stopped by addition of 5× Laemmli SDS sample buffer. Proteins were separated by SDS-PAGE, and radioactivity incorporated into the substrate was quantified by using the Kodak Imaging Station 2000R. For kinase inhibition experiments, GST-ACKD was preincubated with individual inhibitors in kinase buffer or kinase buffer alone (control) before the addition of MBP following the same protocol as described above. Experiments were done in triplicate.
Several compounds were screened to examine their potency in inhibiting the kinase activity of ACK in vitro. […]
Different kinase inhibitors were added to the ACK-1 kinase reaction as described above in General Procedures. Phosphorylation of MBP was determined by SDS-PAGE and autoradiography. The level of MBP phosphorylation was determined by scanning MBP bands using Kodak Imaging Station 2000R and plotted as arbitrary units. […]

Test [2] addresses T2, ACK-1 (Mus musculus, UniProt O54967).
T2 construct: endogenous in cells; host or cells: v-Ha-Ras-transformed NIH 3T3 cells (and parental NIH 3T3 in the siRNA experiment)
The test is described as follows: ACK-1 autophosphorylation in v-Ha-Ras-transformed cells (immunoprecipitation, anti-phosphotyrosine Western blot). It is filed as cell-based. The conditions noted are these: 25 μmol/L, 48 hours, FIG. 5A. The protocol: For immunoprecipitation, cells (2×10^6 per sample) were lysed in a buffer containing 1% Triton X-100, 20 mmol/L HEPES (pH 7.4), 150 mmol/L NaCl, 10% glycerol, 1.5 mmol/L MgCl2, 1 mmol/L EGTA, 10 mmol/L sodium pyrophosphate, 0.2 mmol/L sodium orthovanadate, 50 mmol/L NaF, 0.5 mg/mL phenylmethylsulfonyl fluoride, and 0.5 μg/mL aprotinin. Each lysate was incubated with ACK-1 antibody (10 μg/sample) for 4 hours at 4° C. Protein A-Sepharose CL-4B (50 μL) was added to the lysate followed by additional incubation for 2 hours at 4° C. Sepharose beads were collected by centrifugation at 1,000×g for 5 minutes (Eppendorf microfuge). The pellets were washed thrice with lysis buffer using the same protocol. Protein bound to Sepharose beads was recovered in Laemmli SDS sample buffer. […]
To study the effects of ACK on cell proliferation, 2×10^4 cells per well were seeded into 24-well plates and cultured under standard cell culture conditions. […] Cell numbers were counted with a hemocytometer. […]
The effect of PD158780 and PD157432 on the phosphorylation of ACK-1 was investigated. v-Ha-Ras-transformed cells were cultured in DMEM containing 10% FCS. […] For growth inhibition studies, cells were trypsinized and counted every 24 hours. […]

The test system of test [3] is v-Ha-Ras-transformed NIH 3T3 cells. The test is described as follows: Growth of v-Ha-Ras-transformed cells treated with kinase inhibitors (cell counting). It is filed as cell-based. Conditions: kinase inhibitor added after overnight culture; cells counted (every 24 hours or after 48 hours). The protocol: To study the effects of ACK on cell proliferation, 2×10^4 cells per well were seeded into 24-well plates and cultured under standard cell culture conditions. After overnight culture, individual kinase inhibitors (at indicated concentration) or DMSO (control) were added to the culture. Cells were collected by trypsinization after 48 hours. Cell numbers were counted with a hemocytometer. To study ACK phosphorylation, cells were lysed with a buffer containing 1% Triton X-100, 20 mmol/L HEPES (pH 7.4), 150 mmol/L NaCl, 10% glycerol, 1.5 mmol/L MgCl2, 1 mmol/L EGTA, 10 mmol/L sodium pyrophosphate, 0.2 mmol/L sodium orthovanadate, 50 mmol/L NaF, 0.5 mg/mL phenylmethylsulfonyl fluoride, and 0.5 μg/mL aprotinin. Total protein (˜1 mg) was used for immunoprecipitation of ACK-1.
The effect of PD158780 and PD157432 on the phosphorylation of ACK-1 was investigated. v-Ha-Ras-transformed cells were cultured in DMEM containing 10% FCS. Cells were treated with solvent (DMSO), PD 158780 (25 μmol/L), or PD157432 (25 μmol/L) for 48 hours. Cells were incubated under standard cell culture conditions. […] For growth inhibition studies, cells were trypsinized and counted every 24 hours. […]
The effect of ST021169 and ST038325 on v-Ha-Ras-transformed NIH 3T3 cell growth was investigated. […] After 48 hours, the cells were trypsinized and counted with a hemocytometer. […]

Entries after “also recorded” stand apart in the source; their conditions may differ.

T1 sequence (Q07912 38-378 H250G): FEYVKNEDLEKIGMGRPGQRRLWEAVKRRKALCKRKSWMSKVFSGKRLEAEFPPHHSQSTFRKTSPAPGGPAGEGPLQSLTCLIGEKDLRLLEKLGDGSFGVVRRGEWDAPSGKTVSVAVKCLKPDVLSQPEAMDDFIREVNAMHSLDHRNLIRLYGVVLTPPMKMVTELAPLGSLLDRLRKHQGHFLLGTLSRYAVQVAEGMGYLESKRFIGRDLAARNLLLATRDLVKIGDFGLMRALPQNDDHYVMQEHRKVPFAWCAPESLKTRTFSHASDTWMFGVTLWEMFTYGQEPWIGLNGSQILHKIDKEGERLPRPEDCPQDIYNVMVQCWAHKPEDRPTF
T2 sequence (O54967 whole entry): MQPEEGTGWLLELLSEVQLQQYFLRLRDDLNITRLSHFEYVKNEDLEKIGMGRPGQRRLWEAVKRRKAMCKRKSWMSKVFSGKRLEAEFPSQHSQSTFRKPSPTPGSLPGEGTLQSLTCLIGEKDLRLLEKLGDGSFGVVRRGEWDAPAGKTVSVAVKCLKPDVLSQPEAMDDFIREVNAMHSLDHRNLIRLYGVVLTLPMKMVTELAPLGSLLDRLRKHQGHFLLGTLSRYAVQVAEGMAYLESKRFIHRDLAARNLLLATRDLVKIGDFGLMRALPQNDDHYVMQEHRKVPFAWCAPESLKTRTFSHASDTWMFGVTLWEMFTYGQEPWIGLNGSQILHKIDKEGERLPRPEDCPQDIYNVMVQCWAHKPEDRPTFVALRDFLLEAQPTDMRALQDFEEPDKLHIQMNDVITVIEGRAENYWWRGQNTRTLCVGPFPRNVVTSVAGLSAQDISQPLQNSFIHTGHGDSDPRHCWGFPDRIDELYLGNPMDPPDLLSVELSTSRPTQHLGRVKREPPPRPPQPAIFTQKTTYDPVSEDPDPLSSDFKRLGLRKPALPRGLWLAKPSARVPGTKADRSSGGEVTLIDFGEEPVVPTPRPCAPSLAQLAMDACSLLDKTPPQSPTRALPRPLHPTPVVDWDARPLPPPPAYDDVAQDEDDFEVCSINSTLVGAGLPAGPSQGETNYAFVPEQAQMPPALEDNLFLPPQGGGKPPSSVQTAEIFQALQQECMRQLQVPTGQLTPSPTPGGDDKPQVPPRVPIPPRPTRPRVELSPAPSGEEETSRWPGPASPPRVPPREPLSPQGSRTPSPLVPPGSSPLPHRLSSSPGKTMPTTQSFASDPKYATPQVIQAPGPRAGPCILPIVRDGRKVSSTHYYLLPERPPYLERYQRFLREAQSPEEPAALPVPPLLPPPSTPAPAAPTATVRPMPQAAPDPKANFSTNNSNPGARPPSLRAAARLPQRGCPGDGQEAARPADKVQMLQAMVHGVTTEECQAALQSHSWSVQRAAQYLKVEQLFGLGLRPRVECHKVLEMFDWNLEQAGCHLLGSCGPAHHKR

For `CNc1cc2c(Nc3cccc(Br)c3)ncnc2cn1` [PD158780], in test [1], the “inhibition of kinase activity of ACK (MBP phosphorylation)” value was “inhibited ACK strongly and in a dose-dependent manner; also recorded: strongest inhibitory activity”. The “inhibition of ACK-1 autophosphorylation” value in test [2] is listed as “inhibited ACK-1 autophosphorylation to a much stronger extent than did PD157432”. The “inhibition of v-Ha-Ras-transformed NIH 3T3 cell growth” value in test [3] was “inhibited in a dose-dependent manner”.
